Results published in ChEMBL document CHEMBL3886335, “Difluorolactam compounds as EP4 receptor-selective agonists for use in the treatment of EP4-mediated diseases and conditions” (2015).

Target: Prostaglandin E2 receptor EP4 subtype (Homo sapiens, UniProt P35408)
Experiment: The filters are dried then counted for radioactivity in a scintillation counter (Topcount, Packard) using a scintillation cocktail (Microscint 0, Packard).
Assay type: cell membranes

Prostaglandin E2 receptor EP4 subtype, sequence (P35408 whole entry): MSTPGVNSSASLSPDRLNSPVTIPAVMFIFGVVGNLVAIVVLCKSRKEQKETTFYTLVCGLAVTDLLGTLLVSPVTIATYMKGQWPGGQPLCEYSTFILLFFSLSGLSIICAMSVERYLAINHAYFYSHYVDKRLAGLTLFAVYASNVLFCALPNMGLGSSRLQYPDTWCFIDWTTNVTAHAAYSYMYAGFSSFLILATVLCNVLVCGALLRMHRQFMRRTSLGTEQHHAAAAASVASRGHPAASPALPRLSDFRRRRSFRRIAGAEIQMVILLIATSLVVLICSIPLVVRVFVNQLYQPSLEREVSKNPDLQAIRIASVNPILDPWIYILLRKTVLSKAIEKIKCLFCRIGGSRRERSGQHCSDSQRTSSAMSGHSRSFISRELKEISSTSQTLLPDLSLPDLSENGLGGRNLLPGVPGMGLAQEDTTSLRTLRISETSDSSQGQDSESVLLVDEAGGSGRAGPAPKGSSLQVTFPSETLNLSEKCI

With `CCC#CC[C@H](C)[C@H](O)/C=C/[C@H]1CC(F)(F)C(=O)N1CCCc1ccc(C(=O)O)s1` the IC50 was 3.3 nM and the Ki was 1.2 nM.
